Laboratory results taken from patent US9796727B2, “Field effect transistor” (Nippon Kayaku Kabushiki Kaisha, priority 2009, dated 2017).
In brackets after ≈: the same amount, converted by molar mass.

Assay: Solubility measurement in toluene
Assay type: physicochemical
Details: 60° C.
Method: Example 1: Solubility Measurement
In Table 2, solubility (g/L) in toluene at 60° C. is listed.

Question: For `CCCCCCCCc1ccc2cc3c(cc2c1)sc1c2cc4ccc(CCCCCCCC)cc4cc2sc31` [Compound No. 10, 6,6′-dioctyldinaphtho[2,3-b:2′,3′-f]thieno[3,2-b]thiophen], which solubility in toluene is on record?
Answer: 60 µg/mL (≈ 106 µM)

Question: For `CCCCCCCCCCc1ccc2cc3c(cc2c1)sc1c2cc4ccc(CCCCCCCCCC)cc4cc2sc31` [Compound No. 12, 6,6′-Didecyldinaphtho[2,3-b:2′,3′-f]thieno[3,2-b]thiophen], which solubility in toluene is on record?
Answer: 50 µg/mL (≈ 80.5 µM)

Question: For `CCCCCCCCCCCCc1ccc2cc3c(cc2c1)sc1c2cc4ccc(CCCCCCCCCCCC)cc4cc2sc31` [Compound No. 14, 6,6′-Didodecyldinaphtho[2,3-b:2′,3′-f]thieno[3,2-b]thiophen], which solubility in toluene is on record?
Answer: 40 µg/mL (≈ 59.1 µM)

Question: With `CCCCCCc1ccc2cc3c(cc2c1)sc1c2cc4ccc(CCCCCC)cc4cc2sc31` [compound 6, 6,6′-Dihexyldinaphtho[2,3-b:2′,3′-f]thieno[3,2-b]thiophen] as the molecule, how does the solubility in toluene read?
Answer: 80 µg/mL (≈ 157 µM)

Question: Which solubility in toluene does the source give for `c1ccc2cc3c(cc2c1)sc1c2cc4ccccc4cc2sc31` [ref. 1, dinaphtho[2,3-b:2′,3′-f]thieno[3,2-b]thiophene, reference compound] here?
Answer: ≤ 10 µg/mL

Question: For `CCCCc1ccc2cc3c(cc2c1)sc1c2cc4ccc(CCCC)cc4cc2sc31` [ref. 2, 6,6′-Dibutyldinaphtho[2,3-b:2′,3′-f]thieno[3,2-b]thiophen, reference compound], which solubility in toluene is on record?
Answer: 20 µg/mL (≈ 44.2 µM)
